Results reported in patent US20240181022A1, “AMURINS LYSINS, AND LYSIN-ANTIMICROBIAL PEPTIDE (AMP) CONSTRUCTS ACTIVE AGAINST GRAM-NEGATIVE BACTERIA” (priority 2021, published 2024).
Read-outs that look alike come from different tables or passages of the source. Where no end group is shown, it is not given here. [ ]: non-standard residue; d: D form.

Experiments:
B. cenocepacia = type: cell-based, Burkholderia cenocepacia
Method: (§1) The MBEC (after 2-hour treatments) was determined as described in Jones and Wozniak, PsI Produced by Mucoid Pseudomonas aeruginosa Contributes to the Establishment of Biofilms and Immune Evasion, Am. Soc. Microbiol. 2017, 8(3):e00864-17. Meropenem and tobramycin were included as controls and were both poorly active, with MBEC90 values of >256 μg/mL (data not shown).

B. multivorans = assay: MIC by broth microdilution against B. multivorans; type: cell-based, Burkholderia multivorans; conditions: B. multivorans isolates
Method: (§2) MIC values were determined using a modification of the standard broth microdilution reference method defined by the Clinical and Laboratory Standards Institute (CLSI), CLSL. 2015. Methods for Dilution Antimicrobial Susceptibility Tests for Bacteria That Grow Aerobically; Approved Standard-10th Edition. Clinical and Laboratory Standards Institute, Wayne, PA. The modification was based on the replacement of Mueller Hinton Broth with either CAA media (with and without NaCl) or CAA supplemented with 2.5% human serum. MIC is the minimum concentration of peptide sufficient to suppress at least 80% of the bacterial growth compared to control.
(§3) Based on these nine most prevalent strains, direct lytic agents, including GN370, AM1, AM2, and AM3, were evaluated against various isolates from each of the 9 strains. MICs and MBECs (Example 3) were determined, and a sputum inhibition test was conducted, as described below in Example 5.
(§4) The MICs for were determined as described below using the broth microdilution method for meropenem, GN370, AM1, AM2, and AM3. The results are shown below in Tables 8-12.

S. maltophilia [1] = conditions: for MIC: S. maltophilia test organism of the sputum time-kill assay; for activity (MIC) against S. maltophilia isolates: all tested isolates, Tables 8-12
S. maltophilia [2] = assay: Serial passage resistance development study, S. maltophilia; type: cell-based, Stenotrophomonas maltophilia; conditions: S. maltophilia, day 28, triplicate
Mycobacterium species = type: cell-based
A. ruhlandii = assay: MIC by broth microdilution against A. ruhlandii; type: cell-based, Achromobacter ruhlandii; conditions: A. ruhlandii isolates
Method: as §2, §3, §4

S. maltophilia [3] = assay: Time-kill assay in cystic fibrosis patient sputum, S. maltophilia; type: cell-based, Stenotrophomonas maltophilia; conditions: for effect of sputum on antibacterial activity: 10% CF sputum vs no sputum; for killing by 1 hour, maintained at 24 hours: time-kill
From the text: Sputum from 5 cystic fibrosis patients was pooled. The resulting mixture was not filtered, as it was very dense and not amenable to sterilization by filtration. Sputum is known to be a complex mixture of DNA, carbohydrates, and lipids ([…], 2016). As used herein, the term “sputum” refers to the mucus present in the respiratory tract of an animal, such as a human. Sputum may increase in thickness due to the irritation or infection, including bacterial infection, and in some instances, may be expelled by the animal while coughing. In certain instances, cystic fibrosis may be characterized by the presence of a thick, sticky mucus or sputum present in the lungs of cystic fibrosis patients. The activity of GN370, AM1, AM2, AM3, and meropenem was determined in the sputum using a time-kill assay format as disclosed in Zhang et al., Antimicrobial peptide therapeutics for cystic fibrosis, Antimicrobial Agents Chemother. 2005; 49(7):2921-2927. […] Untreated controls were included in addition to pretreatment plating (t=0) for a baseline CFU determination. Activity was also determined in the absence of sputum for comparison to activity observed in the presence of sputum.

P. apista = type: cell-based, Pandoraea apista
Method: as §1

[4] = test system: Gram-negative bacteria (including P. aeruginosa, E. cloacae, K. pneumoniae, E. coli, and A. baumannii); assay: Inner membrane depolarization (diSC3-5 release); type: cell-based; conditions: equivalent or superior to melittin, LL37, RI-18, and PMBN
From the text: The mechanism of action of Chp peptides disclosed herein can also be evaluated by measuring the depolarization of the inner membrane of Gram-negative bacteria, including MDR and XDR strains. The inner membrane comprises […] phospholipids such as cardiolipin, phosphatidylglycerol, and phosphatidylserine. This creates a net negative charge at physiological pH, which is believed to enhance the binding of cationic peptides, including the Chp peptides disclosed herein. Upon permeabilization of the outer membrane, the ability of Chp peptides to induce dissipation of the cytoplasmic membrane electrical potential gradient (Ay) may be examined, for example by following the release of 3,3′-dipropylthiadicarbocyanine (diSC3-5) as a function of time compared to an untreated control. DiSC3-5 is a fluorophore that is a caged cation concentrated within the bacterial inner membrane and under the influence of the bacterial membrane electrical potential gradient. At high concentrations, diSC3-5 self-quenches, leading to the suppression of fluorescence. When the inner membrane deteriorates or becomes leaky for cations, including protons, the Δψ dissipates, which leads to a release of diSC3-5 and a subsequent increase in fluorescence. […] Without wishing to be bound by theory, it is believed that the adsorption and binding of Chp peptides to the inner membrane and insertion into the lipid bilayer results in membrane permeabilization and pore/ion channel formation, which is concomitant with the collapse of the membrane's electrical potential.

P. aeruginosa = conditions: for MIC: P. aeruginosa test organism of the sputum time-kill assay; for activity (MIC) against P. aeruginosa isolates: all tested isolates, Tables 8-12
M. tuberculosis = type: cell-based, Mycobacterium tuberculosis
[5] = S. maltophilia isolates, in µg/mL
[6] = α-hemolytic P. aeruginosa isolates (n = 13)
[7] = M. tuberculosis (ATCC 35817), (ADC, T) media
[8] = M. tuberculosis strain TN8109_LB (MDR), 7H9 broth, 20 days
[9] = M. tuberculosis strain TN8562_M33 (susc), 7H9 broth, 20 days
[10] = M. tuberculosis strain TN10525_LL (MDR), 7H9 broth, 20 days
[11] = M. tuberculosis strain TN10571_KY (MDR), 7H9 broth, 20 days
[12] = M. tuberculosis strain TN12657_KQ15 (IS), 7H9 broth, 20 days
[13] = M. tuberculosis strain TN13923_HD17 (susc), 7H9 broth, 20 days
[14] = M. tuberculosis strain TN18349_W738 (susc), 7H9 broth, 20 days
[15] = M. tuberculosis strain TN34503_001 (susc), 7H9 broth, 20 days

MRLKMARRRYRLPRRRSRRLFSRTALRMHPRNRLRRIMRGGIRF [AM1]
MBEC50 (B. cenocepacia): 16 µg/mL
MBEC90 (B. cenocepacia): 32 µg/mL
MBEC Range (B. cenocepacia): 2 to 32 µg/mL
MIC50 (B. multivorans): 128 µg/mL
MIC90 (B. multivorans): > 128 µg/mL
AM1 MIC50 (S. maltophilia [1]): 0.5 µg/mL
AM1 MIC90 (S. maltophilia [1]): 1 µg/mL
MIC50 (S. maltophilia [1]): 0.5 µg/mL
MIC90 (S. maltophilia [1]): 1 µg/mL
MIC Range (S. maltophilia [1]; MDR S. maltophilia isolates (n = 8), in µg/mL): 0.5-1
MIC50 (S. maltophilia [1]; S. maltophilia isolates): 0.5 µg/mL
MIC90 (S. maltophilia [1]; S. maltophilia isolates): 1 µg/mL
MIC Range (S. maltophilia [1]; [5]): 0.016-1
MIC (S. maltophilia [1]): AM1 (MIC = 0.5)
activity (MIC) against S. maltophilia isolates (S. maltophilia [1]): highly active
AM1 MIC Range (S. maltophilia [1]; carbapenem-resistant S. maltophilia isolates (n = 23), in µg/mL): 0.016-1
change in MIC over serial passage (S. maltophilia [2]): no increase in MIC
activity (MIC) against Mycobacterium species (Mycobacterium species): highest activity
MIC50 (A. ruhlandii): 1 µg/mL
MIC90 (A. ruhlandii): 4 µg/mL
MIC Range (A. ruhlandii; in µg/mL): 0.125-8
effect of sputum on antibacterial activity (S. maltophilia [3]): none of GN370, AM1, AM2, and AM3 was inhibited
Log10 CFU/mL of sputum (S. maltophilia [3]; absence of sputum, 1 hr): 2.3 Log10 CFU/mL of sputum
Log10 CFU/mL of sputum (S. maltophilia [3]; absence of sputum, 3 hr): 2.3 Log10 CFU/mL of sputum
Log10 CFU/mL of sputum (S. maltophilia [3]; absence of sputum, 24 hr): 2.3 Log10 CFU/mL of sputum
Log10 CFU/mL of sputum (S. maltophilia [3]; presence of 10% sputum, 1 hr): 2.3 Log10 CFU/mL of sputum
Log10 CFU/mL of sputum (S. maltophilia [3]; presence of 10% sputum, 3 hr): 2.3 Log10 CFU/mL of sputum
Log10 CFU/mL of sputum (S. maltophilia [3]; presence of 10% sputum, 24 hr): 2.3 Log10 CFU/mL of sputum
killing by 1 hour, maintained at 24 hours (S. maltophilia [3]): complete killing
MBEC50 (P. apista): 8 µg/mL
MBEC90 (P. apista): 16 µg/mL
inner membrane depolarization (diSC3-5) [4]: dose-dependent increase in membrane depolarization
AM1 MIC50 (P. aeruginosa): 0.25 µg/mL
AM1 MIC90 (P. aeruginosa): 0.5 µg/mL
MIC50 (P. aeruginosa): 0.25 µg/mL
MIC90 (P. aeruginosa): 0.5 µg/mL
MIC Range (P. aeruginosa; MDR P. aeruginosa isolates (n = 13), in µg/mL): 0.016-0.5
MIC50 (P. aeruginosa; P. aeruginosa isolates): 0.25 µg/mL
MIC90 (P. aeruginosa; P. aeruginosa isolates): 0.5 µg/mL
MIC (P. aeruginosa): (MIC = 1)
activity (MIC) against P. aeruginosa isolates (P. aeruginosa): highly active
AM1 MIC Range (P. aeruginosa; carbapenem-resistant P. aeruginosa isolates (n = 17)): 0.016-0.5
MIC50 (P. aeruginosa; [6]): 0.25 µg/mL
MIC90 (P. aeruginosa; [6]): 0.5 µg/mL
MIC (M. tuberculosis; [7]): 8 µg/mL
MIC (M. tuberculosis; [8]): 4 µg/mL
MIC (M. tuberculosis; [9]): 4 µg/mL
MIC (M. tuberculosis; [10]): 8 µg/mL
MIC (M. tuberculosis; [11]): 2 µg/mL
MIC (M. tuberculosis; [12]): 16 µg/mL
MIC (M. tuberculosis; [13]): 16 µg/mL
MIC (M. tuberculosis; [14]): 0.5 µg/mL
MIC (M. tuberculosis; [15]): 0.5 µg/mL

M[dR]L[dK]MA[dR][dR][dR]Y[dR]LP[dR][dR][dR]S[dR][dR]LFS[dR]TAL[dR]MHP[dR]N[dR]L[dR][dR]IM[dR]GGI[dR]F [AM2]
MBEC50 (B. cenocepacia): 16 µg/mL
MBEC90 (B. cenocepacia): 32 µg/mL
MBEC Range (B. cenocepacia): 2 to 32 µg/mL
MIC50 (B. multivorans): > 128 µg/mL
MIC90 (B. multivorans): > 128 µg/mL
MIC50 (S. maltophilia [1]; S. maltophilia isolates): 0.5 µg/mL
MIC90 (S. maltophilia [1]; S. maltophilia isolates): 1 µg/mL
MIC Range (S. maltophilia [1]; [5]): 0.03-2
MIC (S. maltophilia [1]): AM2 (MIC = 0.5)
activity (MIC) against S. maltophilia isolates (S. maltophilia [1]): highly active
change in MIC over serial passage (S. maltophilia [2]): no increase in MIC
activity (MIC) against Mycobacterium species (Mycobacterium species): highest activity
MIC50 (A. ruhlandii): 2 µg/mL
MIC90 (A. ruhlandii): 16 µg/mL
effect of sputum on antibacterial activity (S. maltophilia [3]): none of GN370, AM1, AM2, and AM3 was inhibited
Log10 CFU/mL of sputum (S. maltophilia [3]; absence of sputum, 1 hr): 2.3 Log10 CFU/mL of sputum
Log10 CFU/mL of sputum (S. maltophilia [3]; absence of sputum, 3 hr): 2.3 Log10 CFU/mL of sputum
Log10 CFU/mL of sputum (S. maltophilia [3]; absence of sputum, 24 hr): 2.3 Log10 CFU/mL of sputum
Log10 CFU/mL of sputum (S. maltophilia [3]; presence of 10% sputum, 1 hr): 2.3 Log10 CFU/mL of sputum
Log10 CFU/mL of sputum (S. maltophilia [3]; presence of 10% sputum, 3 hr): 2.3 Log10 CFU/mL of sputum
Log10 CFU/mL of sputum (S. maltophilia [3]; presence of 10% sputum, 24 hr): 2.3 Log10 CFU/mL of sputum
killing by 1 hour, maintained at 24 hours (S. maltophilia [3]): complete killing
MBEC50 (P. apista): 8 µg/mL
MBEC90 (P. apista): 16 µg/mL
inner membrane depolarization (diSC3-5) [4]: dose-dependent increase in membrane depolarization
MIC50 (P. aeruginosa; P. aeruginosa isolates): 0.06 µg/mL
MIC90 (P. aeruginosa; P. aeruginosa isolates): 0.25 µg/mL
MIC Range (P. aeruginosa; P. aeruginosa isolates): 0.016-0.5^
MIC (P. aeruginosa): (MIC = 0.25)
activity (MIC) against P. aeruginosa isolates (P. aeruginosa): highly active
MIC (M. tuberculosis; [7]): 8 µg/mL
MIC (M. tuberculosis; [8]): 2 µg/mL
MIC (M. tuberculosis; [9]): 2 µg/mL
MIC (M. tuberculosis; [10]): 8 µg/mL
MIC (M. tuberculosis; [11]): 4 µg/mL
MIC (M. tuberculosis; [12]): 4 µg/mL
MIC (M. tuberculosis; [13]): 8 µg/mL
MIC (M. tuberculosis; [14]): 2 µg/mL
MIC (M. tuberculosis; [15]): 8 µg/mL
